Laboratory results reported in paper PMC8146912, “Phenolic Compounds of Reynoutria sp. as Modulators of Oral Cavity Lactoperoxidase System” (Antioxidants, 2021).

How the values were obtained:
Assay type in all cases: biochemical
[1] = target: T1, Lactoperoxidase (LPO) (Bos taurus, UniProt P80025); test: Ellman's reagent assay of OSCN- formation, […] nm
T1 construct: native enzyme from bovine milk, commercial lyophilisate (Sigma-Aldrich), heme-containing, mature secreted form

[2] = target: T1, Lactoperoxidase (LPO); test: Ellman's reagent assay of OSCN- formation, […] nm; remark: listed apart in the source
[3] = target: T1, Lactoperoxidase (LPO); test: stopped-flow spectrophotometry, reduction of LPO Compound II to native LPO; details: 1 µM LPO, 0.75 µM H2O2, 20 mM phosphate pH 6, 15 °C; one-electron donor in peroxidation cycle

| IC50 [1] [nM] | EC50 [2] [nM] | Compound | k (Compound II -> Native LPO) [3] |
| --- | --- | --- | --- |
| 74100 ± 3620 | 1310 ± 239 | Oc1cc(O)c2c(c1)O[C@H](c1ccc(O)c(O)c1)[C@H](O)C2 [a, (-)-Epicatechin] | – |
| 423 ± 18 | 9 ± 2 | Oc1ccc(/C=C/c2cc(O)cc(O)c2)cc1 [b, Resveratrol] | – |
| – | – | Cc1cc(O)c2c(c1)C(=O)c1cc(O)cc(O)c1C2=O [c, Emodin] | this compound may be a substrate for LPO Compound I and Compound II |
